Measurements: US8080404B1, “Enzymatic decontamination” (priority 2005, dated 2011)

System: Bacillus anthracis NNR1Δ1 spores
Format: cell-based

## octyl phenol ethoxylate [triton X-100]
  spore kill efficiency with surfactant: most efficient formulation for spore inactivation

## CC(=O)O [acetic acid]
  kill rate with acetyl donor: enhanced the kill rate to about the same degree as did 0.125% acetylsalicylic acid

## CCCCCCCCCCCC[N+](C)(C)CCCS(=O)(=O)[O-] [3-(dodecyldimethylamino) propane sulfonate]
  promotion of spore killing by zwitterionic surfactant: most efficient at promoting spore killing

## CC(=O)Oc1ccccc1C(=O)O [acetylsalicylic acid]
  efficiency of spore killing with acetyl donor: increasing concentrations of acetylsalicylic acid resulted in increased efficiency of spore killing
